According to the supplement of paper PMC11208160:

Test: recombinant barcode read abundance after kanamycin selection (control-corrected) (log10(CPM+1)); higher = more efficient recombination; sequences stand for … in AGTGCAGAGAAAATCGGCCAGTTTTCTCTGCCTGCAGTCCGCATGCCGT…AGATTTATGCAGCGGACTGCCTTTCTCCCAAAGTGATAAACCGGACAGTATCATGGACCGGTTTTCCCGGTAATCCGTATTTGCAAGGTTGGTTTCACT; site = the 11-nt target
Method in brief: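 Oligos holding a promoter, target, barcode and the J23119-driven first 104 bases of the bridge RNA were Gibson-cloned into a vector that supplied the other 73 bp plus a T7-inducible recombinase. This library was co-electroporated with a donor plasmid into E. coli. Two replicates went on chloramphenicol/ampicillin LB agar (control) and two on chloramphenicol/ampicillin/kanamycin with 0.1 mM IPTG. Recombination efficiency is read from averaged, control-corrected barcode counts per million at recombinant junctions, reported as log10(CPM+1).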
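Further: IS621 recombinase and bridge RNA in Escherichia coli cells.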

Sequence	recombinant barcode read abundance (log10)
GTACGTCCTTGGGTTCTAACCTGTTGCCT (site GTACGTCCTAA)	0.112
GTACGTCCTTGGGTTCTAACCTGTTGCCT (site GTACGTCCTAC)	0.352
GTACGTCCTTGGGTTCTAACCTGTTGCCT (site GTACGTCCTAG)	0.482
GTACGTCCTTGGGTTCTAACCTGTTGCCT (site GTACGTCCTAT)	0.0848
GTACTACCTTGGGTTCTAACCTGTTGCCG (site ACGGAGACTAT)	0.198
GTACTACCTTGGGTTCTAACCTGTTGCCG (site GTACTACCTCG)	1.14
GTACTCTCTTGGGTTCTAACCTGTTGCAG (site CCGTCAACTAG)	0.0592
GTACTCTCTTGGGTTCTAACCTGTTGCAG (site GTACTCTCTCT)	1.33
GTAGACCCTTGGGTTCTAACCTGTTGCTG (site GTAGACCCTAC)	1.29
GTAGACCCTTGGGTTCTAACCTGTTGCTG (site GTAGACCCTCA)	2.94
GTAGAGTCTTGGGTTCTAACCTGTTGCTT (site GTAGAGTCTAA)	2.41
GTAGAGTCTTGGGTTCTAACCTGTTGCTT (site GTGGAGTCTAG)	0.685
GTAGCCACTTGGGTTCTAACCTGTTGCCT (site GTAGCCACTAG)	2.37
GTAGCCACTTGGGTTCTAACCTGTTGCCT (site GTCGCCACTAG)	0.449
GTAGCCACTTGGGTTCTAACCTGTTGCCT (site GTGGCCACTAG)	0.791
GTAGCCACTTGGGTTCTAACCTGTTGCCT (site GTTGCCACTAG)	1.06

Sequence	recombinant barcode read abundance (log10)
GTAGGCGCTTGGGTTCTAACCTGTTGCCT (site GTAGGCGCTAG)	1.96
GTAGGCGCTTGGGTTCTAACCTGTTGCCT (site GTCGGCGCTAG)	0.33
GTAGGCGCTTGGGTTCTAACCTGTTGCCT (site GTGGGCGCTAG)	0.441
GTAGGCGCTTGGGTTCTAACCTGTTGCCT (site GTTGGCGCTAG)	0.0331
GTAGGGACTTGGGTTCTAACCTGTTGCCT (site GAAGGGACTAG)	1.34
GTAGGGACTTGGGTTCTAACCTGTTGCCT (site GCAGGGACTAG)	0.806
GTAGGGACTTGGGTTCTAACCTGTTGCCT (site GGAGGGACTAG)	0.439
GTAGGGACTTGGGTTCTAACCTGTTGCCT (site GTAGGGACTAG)	1.97
GTAGGGTCTTGGGTTCTAACCTGTTGCCT (site GTAGGGTCTAG)	2.41
GTAGGGTCTTGGGTTCTAACCTGTTGCCT (site TTGGGGTCTAG)	0.324
GTATACCCTTGGGTTCTAACCTGTTGCAT (site GTATACCCTAT)	2.34
GTATACCCTTGGGTTCTAACCTGTTGCAT (site GTATACCCTTG)	0.224
GTATCCACTTGGGTTCTAACCTGTTGCTA (site GTATCCACTTA)	1.47
GTATCCACTTGGGTTCTAACCTGTTGCTA (site GTATGCCCTTA)	0.0561
GTATCCTCTTGGGTTCTAACCTGTTGCAT (site GTATCCTCTAT)	2.28
GTATCCTCTTGGGTTCTAACCTGTTGCAT (site GTATGCTCTAC)	0.0984
